Source: patent US11447786B2, “Systems and methods for cellular reprogramming of a plant cell” (PIONEER HI-BRED INTERNATIONAL, INC., priority 2017, dated 2022)
Entries after “also recorded” stand apart in the source; their conditions may differ.

How the values were obtained:
Type in all cases: cell-based, maize
ATCC40520 microspores [1] = assay: Microspore embryogenesis in ATCC40520 microspore culture with hemin, MCS/ELS phenotype scoring; conditions: 1 μM hemin
Method: Following microspore isolation, ATCC40520 microspores (see U.S. Pat. No. 5,602,310 incorporated herein by reference in its entirety) were cultured in a petri dish in a 9% sucrose induction medium as a control or a 9% sucrose induction medium supplemented with a 1 μM final concentration of hemin (Sigma-Aldrich, catalog # H9039) at 28° C. under dark conditions.
(§1) Following microspore isolation, ATCC40520 microspores and EH, anelite inbred, that is known to be less responsive relative to the ATCC40520 genotype, were each individually cultured in a petri dish in a 9% sucrose induction medium as a control or a 9% sucrose induction medium supplemented with a 1 μM final concentration of hemin at 28° C. under dark conditions.
(§2) Microspore phenotypes were scored for each of ATCC40520 and EH after 21 days of treatment (+/− hemin). A multicellular structure (MCS) phenotype was scored when a unicellular-derived structure resulting from randomly oriented divisions within a surrounding, intact exine wall was observed. If the surrounding exine was ruptured and a release of cells was observed, then the response was scored as a proliferative embryo-like structure (ELS).

ATCC40520 microspores [2] = assay: Gene expression analysis of embryo-like structures from control and hemin-treated ATCC40520 cultures; conditions: 1 μM hemin, 8 days in vitro culture, vs control
Method: Following microspore isolation, ATCC40520 microspores (see U.S. Pat. No. 5,602,310 incorporated herein by reference in its entirety) were cultured in a petri dish in a 9% sucrose induction medium as a control or a 9% sucrose induction medium supplemented with a 1 μM final concentration of hemin (Sigma-Aldrich, catalog # H9039) at 28° C. under dark conditions. After 8 days of in vitro tissue culture, four biological replicates of proliferating embryo-like structures were sampled from each of the control and the hemin-treated ATCC40520 tissue cultures for embryogenesis induction and processed for gene expression analysis using methods known in the art (data not shown).

inbred EH microspores [3] = assay: Microspore embryogenesis in inbred EH microspore culture with hemin, MCS/ELS phenotype scoring; conditions: 1 μM hemin
Method: as §1, §2

inbred EH microspores [4] = assay: Ex situ treatment of isolated microspores with purified ZmWUS2-hexa histidine-tag protein
Method: WUSCHEL protein expression and purification was performed using a heterologous expression system expressing a plasmid encoding a ZmWUS2-hexa histidine-tag (SEQ ID NO:1) sequence transformed into DH10Bac cells (Thermo Fisher Scientific catalog #10361012) to generate baculoviruses. Baculovirus-infected SF9 insect cells (Thermo Fisher Scientific catalog #12552014) were incubated for 72 hours at 27° C. The infected insect cells were harvested by centrifugation. Purification of the recombinant ZmWUS2-hexa histidine-tag protein (SEQ ID NO:2) was performed using commercially available protein purification methods Following microspore isolation from inbred EH, ZmWUS2-hexa histidine-tag protein treatments were performed for each culture by combining 505 μL of a 4% sucrose induction media, 37.5 μL of molecular grade bovine serum albumin (BSA; 20 mg/ml) (Sigma-Aldrich catalog # B8667) and 7.5 μL of protease inhibitor (Sigma-Aldrich catalog # P9599) and with 250 μL of the purified recombinant ZmWUS2-hexa histidine-tag protein. After gently mixing, the solution was filter sterilized within a sterile environment using a 0.2 μm filter (Pall Corporation catalog #4612). Optionally, an isolation medium was buffered with L-glutathione reduced (Sigma-Aldrich catalog #G4251). […]

[5] = tested on: microspores isolated from a F1 hybrid tassel of an EHxGR genetic cross; assay: Protein transfection of microspores with ZmWUS2-hexa histidine-tag protein with or without Pro-Ject reagent
Method: Transfection reagent preparation using the cationic lipid based Pro-Ject™ transfection reagent (Thermo Fisher Scientific catalog #89850) was performed by adding 250 μL of methanol to the tube containing the dried transfection reagent, vortexing for 30 seconds at top speed, and dispensing 10 μL of Pro-ject™ plus methanol to 1.5 mL Eppendorf tubes. The transfection reagent was evaporated from the tubes within a chemical fume hood for 4 hours drying time at room temperature and the tubes were stored the tubes at −20° C. until use. Upon use, 100 μL of isolation medium containing 50 ng of the purified ZmWUS2-hexa histidine-tag protein was added to each tube and 900 μL microspore culture medium was dispensed into each transfection tube to re-hydrate the transfection reagent and encapsulate the protein. The 1 mL volume of this solution was combined with a 1 mL volume of microspores isolated from a F1 hybrid tassel of an EHxGR genetic cross. The microspores were suspended in isolation medium and each 2 mL volume was dispensed into a well of a 24 well microtiter plate (Lab Safety Supply catalog #11L794). The isolation medium was further supplemented with bovine serum albumin, protease inhibitor and L-glutathione reduced, with or without the cationic lipid-based Pro-Ject™ transfection reagent, and with or with the ZmWUS2-hexa histidine-tag protein treatments (ZmWUS2-hexa histidine-tag protein buffer as a control for comparison to the ZmWUS2-hexa histidine-tag protein). Each plate was sealed with parafilm and incubated at 28° C. under dark conditions. […] After 18 days, all cells were collected and rinsed using 70 μm Fisherbrand™ cell strainer and evaluated for the activation of cellular reprogramming and the induction of microspore embryogenesis. Microspore viability was scored by counting plasmolyzed, collapsed cells (i.e. “non-viable”) and translucent, spherical cells corresponding to the original state (i.e. “viable”).

isolated microspores [6] = assay: Microspore electroporation with ZmWUS2-hexa histidine-tag protein; conditions: in combination with electroporation, vs no protein and no electroporation
Method: A Neon® Transfection System (Thermo Fisher Scientific catalog #MPK5000) and Neon® kit (Thermo Fisher Scientific catalog #MPK10025) is used per the manufacturer's instructions. The ex situ ZmWUS2-hexa histidine-tag protein treatment is prepared by mixing 12.5 μL of ZmWUS2-hexa histidine-tag protein (SEQ ID NO:2; 10 μg total, 0.8 μg/μL stock) with 12.5 μL Lipofectamin 3000 followed by 30 minutes incubation at room temperature. Sucrose is added to the resuspension buffer (buffer R) to a 0.4 M final concentration and filter sterilized. Isolated microspores are resuspended in a 2% (V/V) dimethyl sulfoxide (DMSO)/9% suscrose induction medium solution and incubated for 15 minutes at room temperatures, the microspores are pelleted, and the supernatant is removed. The microspores are washed three times with phosphate buffered saline (PBS; Gibco™ 10010023), resuspended in Electrolytic Buffer E (Thermo Fisher Scientific catalog #MPK5000) and mixed with the ZmWUS2-hexa histidine-tag protein/Lipofectamine 3000 solution followed by room temperature incubation for 10 minutes and then incubation on ice for 10 minutes. DMSO-mediated electroporation was used to increase ZmWUS2-hexa histidine-tag protein uptake into isolated microspores through multiple pulse conditions. […]

isolated microspores [7] = assay: Ex situ treatment of isolated microspores with GAMMA ZEIN-ZmWUS2-hexa histidine-tag protein; conditions: vs microspores cultured without the protein
Method: GAMMA ZEIN-ZmWUS2-hexa histidine-tag protein expression and purification is performed using a heterologous expression system expressing a plasmid encoding a GAMMA ZEIN-ZmWUS2-hexa histidine-tag (SEQ ID NO:46) sequence transformed into DH10Bac cells to generate baculoviruses. Baculovirus-infected SF9 insect cells are incubated for 72 hours at 27° C. The infected insect cells are harvested by centrifugation. Purification of the recombinant GAMMA ZEIN-ZmWUS2-hexa histidine-tag protein (SEQ ID NO:47) is performed as described in EXAMPLE 3.

[8] = 21 days, vs control EH microspores

hemin
cellular proliferation and development of embryo-like structures (ELS) (ATCC40520 microspores [1]; 9% sucrose induction medium, 21 days, vs control): increased cellular proliferation and the development of embryo-like structures (ELS)
quality of the embryo-like structures (proportion of spherical vs non-spherical embryoids) (ATCC40520 microspores [1]; 21 days): improved the quality of the embryo-like structures
number of ELS in responsive cultures (ATCC40520 microspores [1]; after 21 days of treatment (+/- hemin)): approximately doubled
expression of embryogenic transcripts (ATCC40520 microspores [2]): increased expression of embryogenic transcripts
expression of pollen associated transcripts (ATCC40520 microspores [2]): decreased expression of pollen associated transcripts
cellular proliferation in responsive cultures (inbred EH microspores [3]; 21 days of culture, vs control): increased cellular proliferation
percentage of microspores scored with the ELS phenotype (inbred EH microspores [3]; [8]): increased
percentage of microspores scored with the MCS phenotype (inbred EH microspores [3]; [8]): increased

B1: ZmWUS2-hexa histidine-tag protein: Purified recombinant Zea mays WUSCHEL2 hexahistidine-tagged protein (SEQ ID NO:2) from baculovirus-infected SF9 insect cells (protein)
chain: MAANAGGGGAGGGSGSGSVAAPAVCRPSGSRWTPTPEQIRMLKELYYGCGIRSPSSEQIQRITAMLRQHGKIEGKNVFYWFQNHKARERQKRRLTSLDVNVPAAGAADATTSQLGVLSLSSPPPSGAAPPSPTLGFYAAGNGGGSAVLLDTSSDWGSSGAAMATETCFLQDYMGVTDTGSSSQWPRFSSSDTIMAAAAARAATTRAPETLPLFPTCGDDGGSGSSSYLPFWGAASTTAGATSSVAIQQQHQLQEQYSFYSNSNSTQLAGTGNQDVSATAAAAAALELSLSSWCSPYPAAGSMGHHHHHH
modifications: hexahistidine tag
microspore responsiveness and embryogenesis induction (inbred EH microspores [4]; recalcitrant elite inbred, 4% sucrose induction media, vs culture without protein): improved microspore responsiveness and embryogenesis induction
embryoid development (morphology) (inbred EH microspores [4]; wild type microspores treated with purified protein): revealed a suspensor with root hairs; also recorded: A microspore-derived embryo with a developed radicle and root hairs was observed
improvement in cell viability ([5]; 72 hours post-isolation, 4% sucrose liquid induction medium, on average): 5.1 fold
cell proliferation / activation of cellular reprogramming and induction of microspore embryogenesis ([5]; combined with cationic lipid-based Pro-Ject transfection reagent, 18 days): cell proliferation was seen
cell viability after 18 days of culture ([5]; without transfection reagent, vs control without protein): fewer cells were viable in the control treatment
microspore responsiveness and embryogenesis induction (isolated microspores [6]): improved microspore responsiveness and embryogenesis induction

B2: GAMMA ZEIN-ZmWUS2-hexa histidine-tag protein: Gamma-zein cell penetrating peptide WUSCHEL hexahistidine-tagged translational fusion protein (SEQ ID NO:47) (protein)
chain: VRLPPPVRLPPPLVRPPPLHHHHHHMAANAGGGGAGGGSGSGSVAAPAVCRPSGSRWTPTPEQIRMLKELYYGCGIRSPSSEQIQRITAMLRQHGKIEGKNVFYWFQNHKARERQKRRLTSLDVNVPAAGAADATTSQLGVLSLSSPPPSGAAPPSPTLGFYAAGNGGGSAVLLDTSSDWGSSGAAMATETCFLQDYMGVTDTGSSSQWPRFSSSDTIMAAAAARAATTRAPETLPLFPTCGDDGGSGSSSYLPFWGAASTTAGATSSVAIQQQHQLQEQYSFYSNSNSTQLAGTGNQDVSATAAAAAALELSLSSWCSPYPAAGSMGHHHHHH
modifications: WUS-HISTAG-GZCPP protein sequence
microspore responsiveness and embryogenesis induction (isolated microspores [7]): improved microspore responsiveness and embryogenesis induction
